# Laboratory results from patent US8691727B2, “Pesticidal compositions” (Syngenta Crop Protection, LLC, priority 2005, dated 2014).
# Key:
# F. proliferatum = experiment: Agar test: seed contamination and mycelium growth on artificially infected corn seeds; format: cell-based, Fusarium proliferatum; conditions: corn cv. Magister, after 6 days
# Experimental: (§1) An agar test is performed to evaluate the effect of seed treatments with fludioxonil (2.5 g/100 kg seed)+mefenoxam (1.0 g/100 kg seed), thiabendazole at 10, 15 and 20 g/100 kg seed and the corresponding mixtures of all three components on seed health and viability of corn. Seed lots of corn cv. Magister, is infected artificially with either F. proliferatum or F. subglutinans, are used.
# (§2) Czapek-Dox medium (OXOID) is prepared according to manufacturer's recipe: 45.4 g agar in 1 l aqua bidest., autoclaved for 15 min at 121° C., and is cooled down to 55° C. 15 ml medium is poured into each petridish (Ø 10 cm) and is allowed to cool.
# (§3) 10 seeds are placed on the surface of the agar. 5 replicates per treatment are done. Petridishes are placed in an incubator at 20° C. under NUV-light (12 h a day). The number of seeds where Fusarium spp. grew out on the agar is rated after an incubation period of 6 days.
# (§4) • Mefenoxam (1.0 g ai/100 kg seed)+fludioxonil (2.5 g ai/100 kg seed). • Thiabendazole at 10, 15 and 20 g ai/100 kg seed. • Mefenoxam (1.0 g ai/100 kg seed)+fludioxonil (2.5 g ai/100 kg seed)+thiabendazole (at 10, 15 or 20 g ai/100 kg seed).
# (§5) For combined treatments mefenoxam+fludioxonil are applied first on the seeds as a combined formulation and after drying the second application on the seeds with thiabendazole is performed.
# F. subglutinans = experiment: as above; format: cell-based, Fusarium subglutinans; conditions: corn cv. Magister; for FUSSUB Activity Observed / FUSSUB Contaminated Seeds / FUSSUB Mycelium Growth: after 6 days
# Experimental: as §1, §2, §3, §4, §5
# [1] = thiabendazole 10 g ai/100 kg seed (mixture: plus mefenoxam 1.0 g + fludioxonil 2.5 g ai/100 kg seed)
# [2] = thiabendazole 15 g ai/100 kg seed (mixture: plus mefenoxam 1.0 g + fludioxonil 2.5 g ai/100 kg seed)
# [3] = thiabendazole 20 g ai/100 kg seed (mixture: plus mefenoxam 1.0 g + fludioxonil 2.5 g ai/100 kg seed)
compound,measurement,setting,value
"c1ccc2[nH]c(-c3cscn3)nc2c1 [Thiabendazole, thiabendazole]",FUSPRO Activity Observed,F. proliferatum; [1],40%
same,FUSPRO Contaminated Seeds,F. proliferatum; [1],62%
same,FUSPRO Mycelium Growth,F. proliferatum; [1],~60%
same,FUSPRO Contaminated Seeds,F. proliferatum; [2],44%
same,FUSPRO Contaminated Seeds,F. proliferatum; [3],40%
same,FUSPRO Contaminated Seeds,"F. proliferatum; thiabendazole 20 g ai/100 kg seed (mixture: plus mefenoxam 1.0 g + fludioxonil 2.5 g ai/100 kg seed), listed as thiabendazole",reduces the number of Fusarium infected seeds
same,FUSSUB Activity Observed,F. subglutinans; [1],32%
same,FUSSUB Contaminated Seeds,F. subglutinans; [1],94%
same,FUSSUB Mycelium Growth,F. subglutinans; [1],68%
same,FUSSUB Activity Observed,F. subglutinans; [2],60%
same,FUSSUB Contaminated Seeds,F. subglutinans; [2],100%
same,FUSSUB Mycelium Growth,F. subglutinans; [2],40%
same,FUSSUB Activity Observed,F. subglutinans; [3],91%
same,FUSSUB Contaminated Seeds,F. subglutinans; [3],52%
same,FUSSUB Mycelium Growth,F. subglutinans; [3],9%
same,"Mycelium growth, dose response (in words)","F. subglutinans; thiabendazole at 10, 15 and 20 g ai/100 kg seed",linear dose response
